Legend:
[1] = target: ATP-dependent translocase ABCB1 (Homo sapiens, UniProt P08183); assay: TP_TRANSPORTER: intracellular accumulation in KB cell and KB-VJ300 cells; assay type: functional, cell-based
[2] = target: ATP-dependent translocase ABCB1 (Mus musculus, UniProt P21447); assay: TP_TRANSPORTER: increase in brain concentration in mdr1a(-/-) mouse; assay type: functional, organism-based; conditions: in vivo
Sequence of ATP-dependent translocase ABCB1 (Mus musculus, UniProt P21447) (P21447 whole entry): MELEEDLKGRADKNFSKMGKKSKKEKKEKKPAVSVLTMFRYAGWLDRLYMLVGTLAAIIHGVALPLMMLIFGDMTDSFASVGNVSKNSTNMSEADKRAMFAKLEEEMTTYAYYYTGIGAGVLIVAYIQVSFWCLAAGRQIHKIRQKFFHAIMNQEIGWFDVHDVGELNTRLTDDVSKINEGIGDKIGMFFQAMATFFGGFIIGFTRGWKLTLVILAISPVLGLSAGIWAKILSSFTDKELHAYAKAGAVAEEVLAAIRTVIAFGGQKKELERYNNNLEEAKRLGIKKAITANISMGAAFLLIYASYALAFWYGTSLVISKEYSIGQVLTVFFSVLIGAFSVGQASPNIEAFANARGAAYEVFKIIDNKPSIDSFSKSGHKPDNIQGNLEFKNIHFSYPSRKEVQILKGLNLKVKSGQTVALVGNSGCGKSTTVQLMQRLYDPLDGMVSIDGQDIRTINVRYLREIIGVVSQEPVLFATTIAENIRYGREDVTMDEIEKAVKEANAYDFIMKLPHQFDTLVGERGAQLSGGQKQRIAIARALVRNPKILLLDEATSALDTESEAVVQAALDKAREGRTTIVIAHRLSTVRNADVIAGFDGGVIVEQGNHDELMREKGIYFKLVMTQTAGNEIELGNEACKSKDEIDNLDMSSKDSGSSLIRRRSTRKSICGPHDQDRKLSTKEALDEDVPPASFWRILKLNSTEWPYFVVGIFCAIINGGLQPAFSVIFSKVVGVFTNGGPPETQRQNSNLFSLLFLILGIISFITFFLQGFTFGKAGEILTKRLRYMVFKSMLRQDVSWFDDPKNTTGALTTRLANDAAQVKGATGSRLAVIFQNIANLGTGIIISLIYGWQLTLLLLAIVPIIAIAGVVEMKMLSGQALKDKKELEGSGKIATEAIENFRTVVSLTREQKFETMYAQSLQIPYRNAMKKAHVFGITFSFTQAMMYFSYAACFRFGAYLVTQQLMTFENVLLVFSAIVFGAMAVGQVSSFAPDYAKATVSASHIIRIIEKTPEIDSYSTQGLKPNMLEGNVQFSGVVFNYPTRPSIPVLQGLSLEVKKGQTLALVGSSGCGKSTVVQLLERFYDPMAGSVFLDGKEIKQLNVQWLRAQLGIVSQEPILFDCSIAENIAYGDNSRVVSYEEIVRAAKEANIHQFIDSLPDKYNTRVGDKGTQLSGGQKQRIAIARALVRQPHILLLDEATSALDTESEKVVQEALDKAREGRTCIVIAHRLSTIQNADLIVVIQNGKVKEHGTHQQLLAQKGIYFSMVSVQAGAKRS

Sequence of ATP-dependent translocase ABCB1 (Homo sapiens, UniProt P08183) (P08183 whole entry): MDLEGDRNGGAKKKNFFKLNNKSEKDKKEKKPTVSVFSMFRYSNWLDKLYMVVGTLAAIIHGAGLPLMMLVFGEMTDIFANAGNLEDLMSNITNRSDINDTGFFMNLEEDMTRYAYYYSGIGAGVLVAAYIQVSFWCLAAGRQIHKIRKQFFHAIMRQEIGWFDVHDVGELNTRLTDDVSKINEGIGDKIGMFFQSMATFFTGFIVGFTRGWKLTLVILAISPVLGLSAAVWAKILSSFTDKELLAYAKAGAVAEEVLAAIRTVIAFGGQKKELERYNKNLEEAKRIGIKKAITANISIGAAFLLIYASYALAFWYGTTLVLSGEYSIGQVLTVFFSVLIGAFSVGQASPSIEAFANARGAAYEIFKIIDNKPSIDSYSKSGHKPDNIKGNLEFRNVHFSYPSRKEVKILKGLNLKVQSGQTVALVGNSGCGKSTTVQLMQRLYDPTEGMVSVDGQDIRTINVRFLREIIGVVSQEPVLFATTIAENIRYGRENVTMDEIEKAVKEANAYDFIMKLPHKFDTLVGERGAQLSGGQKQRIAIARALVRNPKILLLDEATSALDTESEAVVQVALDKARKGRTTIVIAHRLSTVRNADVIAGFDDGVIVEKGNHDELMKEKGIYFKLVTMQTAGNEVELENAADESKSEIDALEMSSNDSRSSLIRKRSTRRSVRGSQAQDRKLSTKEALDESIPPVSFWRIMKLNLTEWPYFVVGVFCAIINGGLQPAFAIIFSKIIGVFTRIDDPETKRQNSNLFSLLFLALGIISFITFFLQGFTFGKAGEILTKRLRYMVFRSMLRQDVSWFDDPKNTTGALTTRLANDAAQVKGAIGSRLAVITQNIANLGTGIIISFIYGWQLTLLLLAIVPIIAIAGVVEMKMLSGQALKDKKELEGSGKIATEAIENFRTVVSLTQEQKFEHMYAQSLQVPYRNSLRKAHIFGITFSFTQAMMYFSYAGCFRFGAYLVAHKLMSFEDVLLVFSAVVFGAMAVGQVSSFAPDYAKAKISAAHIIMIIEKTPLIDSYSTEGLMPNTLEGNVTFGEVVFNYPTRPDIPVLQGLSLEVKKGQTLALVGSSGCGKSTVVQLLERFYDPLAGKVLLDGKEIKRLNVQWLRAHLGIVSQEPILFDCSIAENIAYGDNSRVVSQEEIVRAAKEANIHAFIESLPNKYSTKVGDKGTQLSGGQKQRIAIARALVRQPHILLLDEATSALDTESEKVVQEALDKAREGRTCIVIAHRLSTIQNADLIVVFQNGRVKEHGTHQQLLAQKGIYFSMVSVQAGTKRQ

Activity [1]: substrate [+]
Activity [2]: substrate [+]
Structure (SMILES): CC(C)(C)NCC(O)COc1ccccc1C#N (configuration not stated) [BUNITROLOL]

— ChEMBL document CHEMBL2073756, “Contribution of P-glycoprotein to bunitrolol efflux across blood-brain barrier” (Biopharm Drug Dispos, 1999)
